Experimental data: patent publication US4849345A, “L-phenylalanine dehydrogenase and use thereof” (priority 1985, dated 1989)

How the values were obtained:
[1] = biological target: T1, L-phenylalanine dehydrogenase produced by Bacillus sp. SCRC-R79a (Lysinibacillus sphaericus, UniProt P23307); conditions: pH 9.0; phenylpyruvate to L-phenylalanine as 100%
T1 sequence (P23307 1-381): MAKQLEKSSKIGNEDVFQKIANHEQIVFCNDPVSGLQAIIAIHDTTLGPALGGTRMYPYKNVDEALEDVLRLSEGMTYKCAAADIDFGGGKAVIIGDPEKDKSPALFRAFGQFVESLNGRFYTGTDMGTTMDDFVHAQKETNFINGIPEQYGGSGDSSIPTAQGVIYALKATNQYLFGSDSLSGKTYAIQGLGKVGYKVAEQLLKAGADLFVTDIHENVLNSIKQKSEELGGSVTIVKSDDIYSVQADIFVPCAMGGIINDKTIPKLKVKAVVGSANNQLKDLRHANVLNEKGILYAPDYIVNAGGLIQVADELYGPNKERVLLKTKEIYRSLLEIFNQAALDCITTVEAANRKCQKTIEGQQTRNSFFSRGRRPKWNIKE

[2] = biological target: T2, L-phenylalanine dehydrogenase produced by Sporosarcina ureae SCRC-R04 (Sporosarcina ureae, UniProt P97014); assay: Substrate and coenzyme specificity, oxidative deamination (Sporosarcina enzyme); type: biochemical; conditions: oxidative deamination
T2 sequence (P97014 1-379): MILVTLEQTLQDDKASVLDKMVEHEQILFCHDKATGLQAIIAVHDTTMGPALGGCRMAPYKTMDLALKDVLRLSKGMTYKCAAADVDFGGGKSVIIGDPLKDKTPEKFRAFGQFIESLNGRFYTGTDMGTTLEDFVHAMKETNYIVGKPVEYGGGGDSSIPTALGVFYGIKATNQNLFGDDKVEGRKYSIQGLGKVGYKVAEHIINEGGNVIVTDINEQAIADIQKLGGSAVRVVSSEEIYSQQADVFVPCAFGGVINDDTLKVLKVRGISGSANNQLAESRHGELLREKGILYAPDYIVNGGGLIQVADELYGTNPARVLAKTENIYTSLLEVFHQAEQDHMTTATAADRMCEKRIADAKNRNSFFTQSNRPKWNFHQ
Method: The substrate concentration is 10 mM, except for the L-tyrosine concentration which is 1.4 mM.

[3] = biological target: T1, L-phenylalanine dehydrogenase produced by Bacillus sp. SCRC-R79a; assay: Substrate and coenzyme specificity, oxidative deamination (Bacillus enzyme); type: biochemical; set-up: inoculated with Bacillus sp; endogenous in cells; host or cells: Bacillus sp; enzyme purified in house; conditions: oxidative deamination
Method: The substrate concentration is 10 mM except for the L-tyrosine concentration which is 1.4 mM.

[4] = substrate concentration 10 mM, L-phenylalanine = 100, read-out: Relative activity (%)

O=C(O)C(=O)Cc1ccccc1 [phenylpyruvate]
relative rate of converting the α-keto acid to the L-amino acid [1]: 100%

C[C@H](N)C(=O)O [L-alanine]
action of the enzyme on the amino acid as substrate (in words) [2]: cannot serve as a substrate
action of the enzyme on the amino acid as substrate (in words) [3]: cannot serve as a substrate

C[C@@H](O)[C@H](N)C(=O)O [L-threonine]
action of the enzyme on the amino acid as substrate (in words) [2]: cannot serve as a substrate
action of the enzyme on the amino acid as substrate (in words) [3]: cannot serve as a substrate

N[C@@H](CC(=O)O)C(=O)O [L-aspartic acid]
action of the enzyme on the amino acid as substrate (in words) [2]: cannot serve as a substrate
action of the enzyme on the amino acid as substrate (in words) [3]: cannot serve as a substrate

N[C@@H](Cc1ccccc1)C(=O)O [L--Phenylalanine, L-phenylalanine]
action of the enzyme on the amino acid as substrate (in words) [2]: acting strongly
activity at 10000 µM [2, 4]: 100%
action of the enzyme on the amino acid as substrate (in words) [3]: acting strongly
activity at 10000 µM [3, 4]: 100%
